Laboratory results from PMC10525132, “Potent Antioxidant and Anti-Tyrosinase Activity of Butein and Homobutein Probed by Molecular Kinetic and Mechanistic Studies” (Antioxidants, 2023).

Legend:
[1] = Radical equilibration EPR (ReqEPR) for the O-H bond dissociation enthalpy; format: physicochemical
Method: Deoxygenated acetonitrile solutions containing the phenols (0.01–0.001 M) and di-tert-butyl peroxide (10% v/v) were sealed under nitrogen in a 2 mm ID suprasil quartz EPR tube. The sample was inserted in the thermostatted (30 °C) cavity of an X-band EPR spectrometer and photolyzed with a mercury–xenon lamp (240–400 nm, max 4500 mW/cm^2). Spectra were recorded with the following settings: modulation amplitude 0.2–1 Gauss, sweep width 30–60 Gauss, modulation frequency 100 kHz, frequency 9.76 GHz, sweep time 60 s, and microwave power 0.1–1 mW. Measured g-factors were corrected with respect to that of TEMPO (g = 2.0064) and of DPPH radical. In ReqEPR experiments, mixtures of TBP and butein were analyzed to obtain the molar ratio of the two equilibrating radicals by comparison of the digitized experimental spectra with computer-simulated ones, as previously described. This afforded the equilibrium constant, Keq. Different irradiation power levels (20% to 100%) and different ratios of the two phenols were tested to guarantee that the two species were at equilibrium.
The reactivity of (phenolic) chain-breaking antioxidants toward formal hydrogen atom transfer (HAT) to a radical such as peroxyl radicals is dictated by the strength of the phenolic O-H bond being broken, i.e., by its bond dissociation enthalpy (BDEOH), and by the steric hindrance in ortho position to the reactive OH [40, 41]. Indeed, there are well-established Evans–Polanyi linear free-energy correlations between the BDEOH and the inhibition rate constant kinh for phenolic antioxidants. One very accurate method to measure the BDEOH is via radical equilibration experiments using electron paramagnetic resonance spectroscopy, the ReqEPR technique. It consists of photolyzing the “unknown” phenol to be studied (^UPhOH) in a mixture with a reference phenol (^RPhOH) in the cavity of the EPR spectrometer with the addition of a peroxide (e.g., di-tert-butylperoxide) as a photochemical initiator. Analysis and deconvolution of the EPR spectrum containing both equilibrating radical species affords the equilibrium constant Keq (see Figure 3), which in turn allows determining the ∆G° of equilibration. Since it has been shown that ∆S° is negligible for such an equilibrium, this affords the BDEOH of ^UPhOH if the value is known for ^RPhOH (Figure 3A).
To convert this value into a gas-phase equivalent, it is necessary to correct for the effect of the solvent, which increases the apparent BDE value by H-bonding to the phenols (see Figure 3B). Such solvent effects can be accounted for quantitatively, as detailed in Figure 3B, by using Abraham’s solvatochromic parameters α2^H and β2^H, describing, respectively, the H-bond donating ability of the phenol and the H-bond accepting ability of the solvent. Considering that the solvent effect is negligible for TBP due to steric hindrance by the t-butyl groups in ortho [40], that α2^H for catechol is 0.73 and β2^H for acetonitrile is 0.39 [42], the DBE measured in acetonitrile must be downscaled by −1.4 kcal/mol to afford BDEOH = 78.4 ± 0.2 kcal/mol for butein in apolar solvent/gas-phase.

[2] = target: T1, mushroom tyrosinase (mTYR) (Agaricus bisporus, UniProt C7FF04); settings: cited from earlier work
T1 construct: purchased Sigma-Aldrich (Milan, Italy)

[3] = target: T1, mushroom tyrosinase (mTYR); settings: previous report, cited from earlier work

T1 sequence (C7FF04 1-392): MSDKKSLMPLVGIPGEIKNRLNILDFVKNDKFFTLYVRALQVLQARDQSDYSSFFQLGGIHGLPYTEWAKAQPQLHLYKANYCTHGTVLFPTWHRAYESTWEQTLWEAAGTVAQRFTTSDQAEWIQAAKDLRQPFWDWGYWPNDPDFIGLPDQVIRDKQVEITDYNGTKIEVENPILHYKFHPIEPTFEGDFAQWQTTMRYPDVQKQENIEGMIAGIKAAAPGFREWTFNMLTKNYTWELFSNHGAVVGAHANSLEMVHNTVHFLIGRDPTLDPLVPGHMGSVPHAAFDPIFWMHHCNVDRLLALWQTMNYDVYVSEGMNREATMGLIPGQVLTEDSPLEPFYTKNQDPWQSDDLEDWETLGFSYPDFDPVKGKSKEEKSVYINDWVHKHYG

Structure (SMILES) | BDEOH ([1]; estimated from the value for butein by additive contribution of substituents) | BDEOH ([1]; estimated from the value for butein by additive contribution of substituents, listed as HB) [kcal/mol] | BDEOH ([1]; estimated from the value for butein by additive contribution of substituents, listed as homobutein) | BDEOH ([1]; ReqEPR vs TBP, corrected for solvent to apolar solvent/gas-phase) [kcal/mol] | BDEOH ([1]; ReqEPR vs TBP, corrected for solvent to apolar solvent/gas-phase, listed as butein) [kcal/mol] | BDEOH higher compared to α-TOH ([1]; difference to α-TOH) [kcal/mol] | Keq (radical equilibration with TBP) ([1]; in acetonitrile at 298 K) | BDEOH ([1]; in acetonitrile at 298 K, not corrected for solvent) [kcal/mol] | BDEOH of any OH group in A ring ([1]; suggested from structure) [kcal/mol] | effect toward diphenolase reaction (reported) [2] | diphenolase inhibition (reported effect) ([2]; even at concentrations > 100 µM) | Ki ([3]; monophenolase, competitive) [µM] | inhibition mode, monophenolase [3]
COc1cc(/C=C/C(=O)c2ccc(O)cc2O)ccc1O [Homobutein, (E)-1-(2,4-dihydroxyphenyl)-3-(4-hydroxy-3-methoxyphenyl)prop-2-en-1-one] | 82.6 ^1 kcal/mol | 82.6 | ~ 82.6 kcal/mol |  |  |  |  |  |  |  |  |  | 
O=C(/C=C/c1ccc(O)c(O)c1)c1ccc(O)cc1O [Butein, (E)-1-(2,4-dihydroxyphenyl)-3-(3,4-dihydroxyphenyl)prop-2-en-1-one] |  |  |  | 78.4 ± 0.2 | 78.4 | 1.3 | 1.64 ± 0.63 | 79.8 ± 0.2 | > 86 | ineffective | poorly effective | 1410 | competitive
